target: T1, human recombinant full-length fatty acid synthase (FASN) (Homo sapiens, UniProt P49327); test: Biochemical activity testing of human fatty acid synthase FASN (NADPH fluorescence intensity enzyme assay); conditions: 15 min pre-incubation, 30 min reaction at room temperature
T1 construct: human recombinant full-length fatty acid synthase (produced in-house in SF9 cells); made in house; host or cells: SF9 insect cells
Text: Biochemical activity testing of human fatty acid synthase FASN
Fatty acid synthase FASN is a multifunctional enzyme with seven catalytic activities thereby synthesising long chain fatty acids especially palmitoyl-CoA in the presence of co-factor NADPH starting from the substrates acetyl-CoA and malonyl-CoA. The reductive synthesis is realized by the oxidation of NADPH to NADP. Since NADPH has a high fluorescence intensity quantum yield compared to NADP with excitation at 340 nm and emission at 460 nm, the reaction can be monitored via the decrease in fluorescence intensity. The biochemical FASN activity testing was performed as 384 well two-time-point kinetic fluorescence intensity assay format in Greiner low volume medium binding 384-well black microtiter plates in a total assay volume of 8 μl and was used for high throughput screen. In each well 3 μl 40 nM human recombinant full-length fatty acid synthase (produced in-house in SF9 cells) were dispensed in the following assay buffer: 50 mM potassium phosphate buffer pH 7.0, 0.005% (w/v) BSA, 2 mM Glutathione, 0.02% Tween-20. Then 2 μl of 200 μM NADPH in assay buffer were added, followed by the addition of the test compounds in 10 dilution concentrations starting with 30 μM (final concentration) to get a final DMSO content of 1% (v/v). The mixture was incubated for at least 15 min at room temperature. After the pre-incubation the enzymatic reaction was started by the addition of 2 μl substrate solution (80 μM acetyl-CoA, 240 μM malonyl-CoA). A first fluorescence intensity measurement (time point one) was performed with an Envision multimode reader (Perkin Elmer LAS Germany GmbH) at excitation wavelength 340 nm (lamp mode) and emission wavelength 460 nm. The reaction was incubated for 30 minutes at room temperature. After this the fluorescence intensity was measured again in the Envision using the same parameters as described above (second time point measurement). The data were analysed by subtracting the first time point measurement value from the second time point measurement value (after the enzymatic reaction). The differences of the emission signals were determined. These reflect directly the conversion rate of NADPH. The full value used was the inhibitor-free reaction. A pharmacological zero value was used like GSK837149A (Sigma-Aldrich) in a final concentration of 5-10 μM. The inhibitory values (IC50) were determined using either the program Symyx Assay Explorer® or Condosseo® from GeneData.

T1 sequence (P49327 whole entry): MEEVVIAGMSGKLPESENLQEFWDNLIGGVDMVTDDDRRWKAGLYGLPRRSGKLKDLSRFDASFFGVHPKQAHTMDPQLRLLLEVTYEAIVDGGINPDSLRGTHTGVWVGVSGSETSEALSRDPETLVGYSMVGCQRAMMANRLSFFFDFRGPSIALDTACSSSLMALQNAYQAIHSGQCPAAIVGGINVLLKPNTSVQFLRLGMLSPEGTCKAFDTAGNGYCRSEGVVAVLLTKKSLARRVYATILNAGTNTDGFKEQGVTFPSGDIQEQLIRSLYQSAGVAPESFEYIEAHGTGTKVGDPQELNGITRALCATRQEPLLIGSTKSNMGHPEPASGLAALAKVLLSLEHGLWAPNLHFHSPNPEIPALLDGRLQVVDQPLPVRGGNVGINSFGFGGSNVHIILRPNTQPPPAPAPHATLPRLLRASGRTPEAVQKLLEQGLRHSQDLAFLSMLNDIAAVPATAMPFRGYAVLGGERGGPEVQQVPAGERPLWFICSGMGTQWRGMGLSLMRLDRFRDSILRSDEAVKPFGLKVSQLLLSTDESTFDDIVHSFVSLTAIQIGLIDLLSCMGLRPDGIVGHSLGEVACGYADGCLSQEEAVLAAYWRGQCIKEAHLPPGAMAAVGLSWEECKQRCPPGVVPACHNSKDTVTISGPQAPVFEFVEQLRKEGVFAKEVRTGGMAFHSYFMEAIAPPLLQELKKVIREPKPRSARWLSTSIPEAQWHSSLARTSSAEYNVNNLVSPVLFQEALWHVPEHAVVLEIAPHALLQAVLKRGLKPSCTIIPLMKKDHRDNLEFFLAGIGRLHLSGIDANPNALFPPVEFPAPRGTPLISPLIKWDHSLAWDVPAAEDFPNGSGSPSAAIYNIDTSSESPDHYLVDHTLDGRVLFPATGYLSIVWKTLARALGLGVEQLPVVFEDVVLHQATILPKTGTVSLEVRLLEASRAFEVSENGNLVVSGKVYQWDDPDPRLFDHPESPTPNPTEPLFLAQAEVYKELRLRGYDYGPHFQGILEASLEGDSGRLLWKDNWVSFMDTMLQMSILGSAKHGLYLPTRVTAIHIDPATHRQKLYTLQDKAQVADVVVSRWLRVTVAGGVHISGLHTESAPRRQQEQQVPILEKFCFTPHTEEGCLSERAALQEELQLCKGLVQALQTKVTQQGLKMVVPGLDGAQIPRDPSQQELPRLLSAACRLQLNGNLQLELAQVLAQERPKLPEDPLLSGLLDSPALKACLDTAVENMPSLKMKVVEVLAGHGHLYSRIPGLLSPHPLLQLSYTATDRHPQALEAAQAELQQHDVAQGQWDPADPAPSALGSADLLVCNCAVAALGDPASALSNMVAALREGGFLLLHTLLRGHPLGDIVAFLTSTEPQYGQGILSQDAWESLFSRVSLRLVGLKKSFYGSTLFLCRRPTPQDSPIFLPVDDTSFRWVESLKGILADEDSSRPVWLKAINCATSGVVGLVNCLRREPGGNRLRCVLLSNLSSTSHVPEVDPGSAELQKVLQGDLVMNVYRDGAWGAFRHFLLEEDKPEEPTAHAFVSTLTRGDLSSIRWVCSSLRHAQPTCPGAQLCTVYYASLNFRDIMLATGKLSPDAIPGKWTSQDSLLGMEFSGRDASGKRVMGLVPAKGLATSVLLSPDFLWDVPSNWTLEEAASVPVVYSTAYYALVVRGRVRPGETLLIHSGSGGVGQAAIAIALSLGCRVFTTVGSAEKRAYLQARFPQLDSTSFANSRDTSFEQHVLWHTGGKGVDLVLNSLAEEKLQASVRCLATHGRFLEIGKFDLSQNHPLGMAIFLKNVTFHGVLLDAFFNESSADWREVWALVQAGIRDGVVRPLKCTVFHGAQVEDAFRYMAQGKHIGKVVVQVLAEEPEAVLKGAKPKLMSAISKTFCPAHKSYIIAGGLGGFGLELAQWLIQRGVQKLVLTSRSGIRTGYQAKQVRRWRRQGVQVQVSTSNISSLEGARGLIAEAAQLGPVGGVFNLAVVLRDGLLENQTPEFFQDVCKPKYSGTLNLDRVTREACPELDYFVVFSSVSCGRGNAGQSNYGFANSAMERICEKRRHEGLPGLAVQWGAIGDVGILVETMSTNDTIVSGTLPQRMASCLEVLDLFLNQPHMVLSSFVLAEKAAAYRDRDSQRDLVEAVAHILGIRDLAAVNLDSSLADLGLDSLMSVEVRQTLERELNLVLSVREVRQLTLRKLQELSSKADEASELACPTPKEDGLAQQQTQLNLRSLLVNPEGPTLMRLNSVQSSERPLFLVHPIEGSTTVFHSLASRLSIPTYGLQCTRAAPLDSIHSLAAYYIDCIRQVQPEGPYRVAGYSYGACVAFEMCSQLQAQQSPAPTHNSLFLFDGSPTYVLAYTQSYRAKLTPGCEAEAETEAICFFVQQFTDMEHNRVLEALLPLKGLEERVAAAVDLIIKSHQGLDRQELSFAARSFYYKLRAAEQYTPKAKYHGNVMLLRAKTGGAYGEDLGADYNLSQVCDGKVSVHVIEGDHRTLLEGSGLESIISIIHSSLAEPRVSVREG

| SMILES | IC50 [nM] |
| --- | --- |
| O=C(c1ccc(-c2ccc3cnccc3c2)cc1)N1CCN(C(=O)C2CC2)CC1 [Compound A3, (4-cyclopropanecarbonyl-piperazin-1-yl)-(4-isoquinolin-6-yl-phenyl)-methanone] | < 300 |
| CCC(=O)N1CCN(C(=O)c2ccc(-c3ccc4cnccc4c3)cc2)CC1 [Compound A1, 1-[4-(4-isoquinolin-6-yl-benzoyl)-piperazin-1-yl]-propan-1-one] | < 300 |
| CCCC(=O)N1CCN(C(=O)c2ccc(-c3ccc4cnc(OC)cc4c3)cc2)CC1 [Compound A4, 1-{4-[4-(3-methoxy-isoquinolin-6-yl)-benzoyl]-piperazin-1-yl}-butan-1-one] | 300 to 3000 |
| CCCCC(=O)N1CCN(C(=O)c2ccc(-c3ccc4cnccc4c3)cc2)CC1 [Compound A5, 1-[4-(4-isoquinolin-6-yl-benzoyl)-piperazin-1-yl]-pentan-1-one] | < 300 |

The remaining lines, values ahead:

| IC50 [nM] | SMILES |
| --- | --- |
| < 300 | CCCC(=O)N1CCN(C(=O)c2ccc(-c3ccc4cnccc4c3)cc2)CC1 [Compound A6, 1-[4-(4-isoquinolin-6-yl-benzoyl)-piperazin-1-yl]-butan-1-one] |
| < 300 | CCC(=O)N1CCN(C(=O)c2ccc(-c3ccc4c[n+]([O-])ccc4c3)cc2)CC1 [Compound A7, 1-{4-[4-(2-oxy-isoquinolin-6-yl)-benzoyl]-piperazin-1-yl}-propan-1-one] |
| 300 to 3000 | CC(=O)N1CCN(C(=O)c2ccc(-c3ccc4cnccc4c3)cc2)CC1 [Compound A2, 1-[4-(4-isoquinolin-6-yl-benzoyl)-piperazin-1-yl]ethanone] |
